Measurements as given in PubChem BioAssay (NCI).
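Where inhibition never reached the appropriate level, the endpoint shown equals the highest concentration tested. Otherwise, values were interpolated linearly from a five-concentration, 48-hour dose response in 96-well plates. TGI denotes the concentration required for complete inhibition of growth.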

Tests used:
Assay in all cases: NCI tumour cell line growth inhibition, 48 h
786-0 renal = test system: 786-0 renal
SW-620 colon = test system: SW-620 colon
SK-MEL-5 melanoma = test system: SK-MEL-5 melanoma
NCI-H522 lung = test system: NCI-H522 lung
TK-10 renal = test system: TK-10 renal
OVCAR-3 ovarian = test system: OVCAR-3 ovarian
EKVX NSCLC = test system: EKVX NSCLC
IGROV1 ovarian = test system: IGROV1 ovarian
U251 CNS = test system: U251 CNS
MOLT-4 leukemia = test system: MOLT-4 leukemia
SF-295 CNS = test system: SF-295 CNS
SR leukemia = test system: SR leukemia
K-562 leukemia = test system: K-562 leukemia
SF-268 CNS = test system: SF-268 CNS
RPMI-8226 leukemia = test system: RPMI-8226 leukemia
RXF 393 renal = test system: RXF 393 renal
MDA-MB-231 breast = test system: MDA-MB-231 breast
MDA-MB-435 = test system: MDA-MB-435
NCI/ADR-RES ovarian = test system: NCI/ADR-RES ovarian

Row | SMILES | TGI (786-0 renal) | TGI (SW-620 colon) | TGI (SK-MEL-5 melanoma) | TGI (NCI-H522 lung) | TGI (TK-10 renal) | TGI (OVCAR-3 ovarian) | TGI (EKVX NSCLC) | TGI (IGROV1 ovarian) | TGI (U251 CNS) | TGI (MOLT-4 leukemia) | TGI (SF-295 CNS) | TGI (SR leukemia) | TGI (K-562 leukemia) | TGI (SF-268 CNS) | TGI (RPMI-8226 leukemia) | TGI (RXF 393 renal) | TGI (MDA-MB-231 breast) | TGI (MDA-MB-435) | TGI (NCI/ADR-RES ovarian)
1 | CCCCC/C=C1\CCC(CN(C)C)C1=O (stereo unspecified) | 7.02 µM | 11.7 µM | 34.3 µM | 13.4 µM | > 40.1 µM | 30.7 µM | > 56.3 µM | 32.6 µM | 20.7 µM | 30.8 µM | 40.9 µM | 21.6 µM | 28.2 µM | 41.4 µM | – | – | – | – | –
2 | CCOC(=O)/C(=C/c1ccc(N(C)C)cc1)N(CC)CC | > 100 µM | > 100 µM | – | > 100 µM | > 100 µM | > 100 µM | > 100 µM | > 100 µM | > 100 µM | > 100 µM | > 100 µM | > 100 µM | 65.8 µM | > 100 µM | 89 µM | – | – | – | –
3 | Cn1c2ccccc2c2ncc3[nH]c4ccccc4c3c21 | > 100 µM | 71 µM | 40 µM | 33.2 µM | 45.1 µM | 31.6 µM | 65.6 µM | 58.2 µM | 39.9 µM | 67.4 µM | 47.9 µM | – | 95.5 µM | 61.8 µM | 63 µM | 30.6 µM | – | – | –
4 | Cn1cnnc1Sc1c([N+](=O)[O-])ncn1C | > 100 µM | > 100 µM | > 100 µM | 25.6 µM | > 100 µM | > 100 µM | > 100 µM | > 100 µM | > 100 µM | > 100 µM | > 100 µM | > 100 µM | > 100 µM | > 100 µM | > 100 µM | – | – | – | –
5 | C[C@]12CCC(=O)C=C1CC[C@@H]1C2CC[C@]2(C)Nc3[nH]ncc3CC12 (stereo partly specified) | > 100 µM | > 100 µM | > 100 µM | – | > 100 µM | > 100 µM | > 100 µM | > 100 µM | > 100 µM | > 100 µM | > 100 µM | – | > 100 µM | – | > 100 µM | > 100 µM | – | – | –
6 | C=C(C)C1CCC2(C)CC1c1c(c(C)cc3c1[nH]c1ccccc13)O2 (stereo unspecified) | > 25 µM | > 25 µM | > 25 µM | > 25 µM | – | > 25 µM | – | > 25 µM | > 25 µM | > 25 µM | – | > 25 µM | > 25 µM | > 25 µM | > 25 µM | – | – | – | –
7 | O=[N+]([O-])c1ccc(-c2cnc3ccccn23)cc1 | > 100 µM | > 100 µM | > 100 µM | > 100 µM | – | > 100 µM | > 100 µM | – | > 100 µM | > 100 µM | > 100 µM | > 100 µM | > 100 µM | > 100 µM | > 100 µM | > 100 µM | – | – | –
8 | COC(=O)C(C(=O)Cc1ccccc1[N+](=O)[O-])C(=O)OC | > 100 µM | > 100 µM | > 100 µM | > 100 µM | > 100 µM | > 100 µM | > 100 µM | > 100 µM | – | > 100 µM | > 100 µM | > 100 µM | – | > 100 µM | – | > 100 µM | – | – | –
9 | Cc1nn(C(=O)CC(=O)Nc2ccc(Cl)cc2)c(C)c1N=Nc1ccccc1C(=O)O | > 100 µM | > 100 µM | > 100 µM | > 100 µM | > 100 µM | > 100 µM | > 100 µM | > 100 µM | > 100 µM | > 100 µM | > 100 µM | – | > 100 µM | > 100 µM | > 100 µM | – | – | – | –
10 | CN(C)CCNC(=O)c1cccc2c(Nc3ccc(S(=O)(=O)N=C(N)N)cc3)c3ccccc3nc12 | 60 µM | > 100 µM | 27.9 µM | 17.3 µM | > 100 µM | – | 55.3 µM | 45 µM | 67 µM | 6.83 µM | 75.2 µM | > 100 µM | 77.4 µM | 26.6 µM | – | > 100 µM | – | – | –
11 | CCOC(=O)NNC(=O)NCCCCNC(=O)NNC(=O)OCC | > 100 µM | > 100 µM | > 100 µM | > 100 µM | > 100 µM | > 100 µM | > 100 µM | > 100 µM | > 100 µM | > 100 µM | > 100 µM | – | > 100 µM | – | > 100 µM | > 100 µM | > 100 µM | > 100 µM | > 100 µM
12 | CC(Oc1ccc(OCC2CCCCC2)cc1)C(=O)OCC(=O)c1ccc(-c2ccccc2)cc1 (stereo unspecified) | > 100 µM | – | > 100 µM | > 100 µM | > 100 µM | > 100 µM | – | > 100 µM | > 100 µM | > 100 µM | > 100 µM | – | > 100 µM | > 100 µM | – | > 100 µM | – | – | –
13 | COc1ccc(OC)c(/C=C(/C#N)c2ccccc2)c1 | > 100 µM | > 100 µM | 94.5 µM | 45.5 µM | > 100 µM | 88.2 µM | > 100 µM | > 100 µM | > 100 µM | 57.7 µM | > 100 µM | – | 13.8 µM | > 100 µM | 60.6 µM | 38.7 µM | – | – | –
14 | COc1ccc(C(C#N)NNC(=O)Cc2ccccc2)cc1OC (stereo unspecified) | > 100 µM | > 100 µM | > 100 µM | > 100 µM | > 100 µM | – | – | > 100 µM | > 100 µM | > 100 µM | > 100 µM | > 100 µM | > 100 µM | > 100 µM | > 100 µM | > 100 µM | – | – | –
